Measurements: publication PMC9088016, “Synthesis and biological evaluation of phosphatidylcholines with cinnamic and 3-methoxycinnamic acids with potent antiproliferative activity” (RSC Advances, 2018)
Like-named read-outs stand apart in the source and are kept apart here.

Assays:
BALB/3T3 cells = assay: Antiproliferative assay in vitro (SRB), 72 h; assay type: cell-based, mouse; settings: 72 h exposure, mean ± SD
Procedure: (§1) Biophenotypic B myelomonocytic leukaemia MV4-11, human lung carcinoma A549, human breast carcinoma MCF-7, human colon carcinoma LoVo, its drug resistant line LoVo/DX, liver carcinoma HepG2, and normal mouse fibroblast BALB/3T3 cells were obtained from the American Type Culture Collection (Rockville, Maryland, USA). All lines are being maintained at the Institute of Immunology and Experimental Therapy, Wrocław, Poland. All cell lines were grown in a humid atmosphere at 37 °C with 5% CO2 and were cultured in media according to the method described before.[18]
(§2) Prior to usage, the compounds were dissolved in DMSO to the concentration of 25 or 50 mM, and subsequently diluted in the culture medium to reach the required concentrations (ranging from 5 to 625 μM).
(§3) Twenty-four hours before addition of the tested compounds, the cells were plated in 96-well plates (Sarstedt, USA) at a density of 10^4 cells per well. All cell lines were exposed to each tested phosphatidylcholines for 72 h. Cells were also exposed to the commercially available drugs cisplatin and doxorubicin. Cell lines were also exposed to the solvent used for the tested compounds (DMSO) at concentrations corresponding to those present in the tested agents' dilutions. For adherent cells, a SRB assay was performed and an MTT assay was performed for leukaemia cells.
(§4) The cytotoxicity assay was performed after 72 h exposure of the cultured cells to varying concentrations (from 5 to 625 μM) of the tested agents. The cells attached to the plastic were fixed in situ by gently adding 50 μL per well of cold 50% TCA (trichloroacetic acid). The plates were incubated at 4 °C for 1 h and then washed five times with tap water. The background optical density was measured in the wells filled with culture medium, without the cells. The cellular material fixed with TCA was stained with 50 μL of 0.4% sulforhodamine B (SRB) dissolved in 1% acetic acid for 30 min. Unbound dye was removed by rinsing (4×) with 1% acetic acid. The protein-bound dye was extracted with 10 mM unbuffered Tris base for determination of the optical density (at 540 nm) in a computer-interfaced 96-well microtiter plate reader Multiskan RC photometer (Labsystems, Helsinki, Finland). Each compound in the given concentration was tested in triplicate in each experiment, which was repeated 3–5 times.
(§5) The results of the cytotoxic activity in vitro were expressed as IC50—the concentration of compound (in μM) that inhibits the proliferation rate of the tumor cells by 50% as compared to control untreated cells.

MV4-11 cells [1] = assay: Antiproliferative assay in vitro (MTT), 72 h; assay type: cell-based, human; settings: leukaemia cells; for IC50: MTT, 72 h exposure, mean ± SD; for Fold lower IC50 than free cinnamic / 3-methoxycinnamic acid: versus corresponding free acid
Procedure: as §1, §2, §3
This technique was applied for the cytotoxicity screening against leukemia cells. An assay was performed after 72 h exposure to varying concentrations (from 5 to 625 μM) of the tested agents. For the last 3–4 hours of incubation. 20 μL of MTT solution was added to each well (MTT: 3-(4,5-dimethylthiazol-2-yl)-2,5-diphenyl tetrazolium bromide; stock solution: 5 mg mL^−1, Sigma, Germany). The mitochondria of viable cells reduce the pale yellow MTT to a navy blue formazan: the more viable cells are present in a well, the more MTT will be reduced to formazan. When the incubation time was completed, 80 μL of the lysing mixture was added to each well (lysing mixture: 225 mL dimethylformamide, 67.5 g sodium dodecyl sulphate, and 275 mL of distilled water). After 24 h, when formazan crystals had been dissolved, the optical densities of the samples were read with a Multiskan RC photometer at 570 nm wavelength. Each compound in a given concentration was tested in triplicate in each experiment, which was repeated 3–5 times.
as §5

HepG2 cells = assay: Antiproliferative assay in vitro (SRB), 72 h; assay type: cell-based, human; settings: 72 h exposure, mean ± SD
Procedure: as §1, §2, §3, §4, §5

LoVo/DX cells = assay: Antiproliferative assay in vitro (SRB), 72 h; assay type: cell-based, human; settings: for Resistance index (RI): doxorubicin-resistant LoVo/DX cell line versus LoVo; for IC50: doxorubicin-resistant colon cancer cells, SRB, 72 h exposure, mean ± SD
Procedure: as §1, §2, §3, §4, §5

A549 cells = assay: Antiproliferative assay in vitro (SRB), 72 h; assay type: cell-based, human; settings: 72 h exposure, mean ± SD, read-out: IC50 A-549
Procedure: as §1, §2, §3, §4, §5

LoVo cells = assay: Antiproliferative assay in vitro (SRB), 72 h; assay type: cell-based, human; settings: colon cancer cells, 72 h exposure, mean ± SD
Procedure: as §1, §2, §3, §4, §5

MCF-7 cells = assay: Antiproliferative assay in vitro (SRB), 72 h; assay type: cell-based, human; settings: 72 h exposure, mean ± SD
Procedure: as §1, §2, §3, §4, §5

MV4-11 cells [2] = assay: Determination of the mitochondrial membrane potential (JC-1, flow cytometry); assay type: cell-based, human; settings: 50 μM, 72 h
Procedure: The loss of mitochondrial membrane potential was estimated using the fluorescent probe JC-1 (Sigma Aldrich, Germany). […] The cells were exposed to the tested compound 5a at a concentration of 50 μM. The MV4-11 cells (5 × 10^5) were washed in phosphate-buffered saline (PBS) containing 2% FBS. The pelleted cells were resuspended in 100 μL of the warm cultured medium with the addition of 10 μL of JC-1 (the final concentration of JC-1 was 3 μg mL^−1) and were then incubated for 30 min at 37 °C. Next, the cells were washed with 1 mL of PBS with 2% FBS and resuspended in 300 μL of PBS with 2% FBS. The mitochondrial membrane potential was analyzed by flow cytometry using BD LSRFortessa cytometry. Compounds at each concentration were tested at least three times independently. The control in the assay was the cells exposed to DMSO at a concentrations of 0.05%. Data were analyzed using Flowing software 2.5.1.

MV4-11 cells [3] = assay: Cell death determination by Annexin V and PI staining; assay type: cell-based, human; settings: 50 μM, 72 h
Procedure: The MV4-11 cells were exposed to the test compound 5a at a concentration of 50 μM for 72 h. After incubation, the cells (2 × 10^5) were washed twice with PBS. APC-Annexin V (BD Pharmingen) was dissolved to the concentration of 1 mg mL^−1 in a binding buffer (HEPES buffer: 10 mM HEPES/NaOH), pH 7.4, 150 mM NaCl, 5 mM KCl, 1 mM MgCl2, 1.8 mM CaCl2, (IIET, Poland) and the cells were suspended in 200 μL of this 1 mg mL^−1 solution (freshly prepared each time). After the incubation in the dark (15 min) at room temperature, the solution (1 mg mL^−1) of propidium iodide (PI) was added prior to the analysis to give a final concentration of 0.1 mg mL^−1. Data acquisition was performed by flow cytometry using a BD LSRFortessa cytometer. Compound 5a was tested at least three times independently. The control in the assay was the cells exposed to DMSO at a concentration of 0.05%. Results were analyzed using Flowing software 2.5.1. […] Double-negative cells were live cells, PI+/Annexin V+ were late apoptotic or necrotic cells, and PI-/Annexin V+ were early apoptotic.

MV4-11 cells [4] = assay: Cell cycle analysis (propidium iodide, flow cytometry); assay type: cell-based, human; settings: 50 μM, 72 h
Procedure: For cell cycle analysis, the cells MV4-11 were treated with the tested compound 5a dissolved in DMSO at a concentration of 50 μM. The cells were treated also only by the DMSO for comparison. After 72 h of incubation, the cells (1 × 10^6) were trypsinized and rinsed with cold PBS. Washed cell pellets were fixed for 24 h in 70% ethanol at −20 °C. After fixation, the cells were washed twice with PBS once again and resuspended in PBS. Next, RNAse (8 μg mL^−1, Fermentas, Germany) was added and the cells were incubated for 1 h at 37 °C. The cells were then stained with propidium iodide (50 μg mL^−1, Sigma Aldrich, Germany) at 4 °C for 30 min and the cellular DNA content was analyzed by flow cytometry using a BD LSRFortessa cytometer (BD Bioscience, San Jose, USA). Compounds at each concentration were tested at least three times independently. The control in the assay was the cells exposed to DMSO at a concentration of 0.05%. Data were analyzed using ModFit 3.2 software (Verity Software, USA).

[5] = Mus musculus, BALB/3T3, normal mice fibroblast cells
[6] = Homo sapiens, HepG2, liver cancer cells
[7] = Homo sapiens, A549, lung cancer cells
[8] = Homo sapiens, MCF7, breast cancer cells

Molecule	IC50 (BALB/3T3 cells; normal mice fibroblast cells)	IC50 (MV4-11 cells [1])	Fold lower IC50 than free cinnamic / 3-methoxycinnamic acid (MV4-11 cells [1])	IC50 (HepG2 cells; liver cancer cells)	Resistance index (RI) (LoVo/DX cells)	IC50 (LoVo/DX cells)	IC50 (A549 cells; lung cancer cells)	IC50 (LoVo cells)	IC50 (MCF-7 cells; breast cancer cells)	Ability to overcome drug resistance (LoVo/DX cells; doxorubicin-resistant LoVo/DX cell line, judged from RI)	IC50 (BALB/3T3 cells; [5])	IC50 (MV4-11 cells [1]; Homo sapiens, MV4-11)	IC50 (HepG2 cells; [6])	IC50 (LoVo/DX cells; Homo sapiens, LoVo/DX)	IC50 (A549 cells; [7])	IC50 (LoVo cells; Homo sapiens, LoVo)	IC50 (MCF-7 cells; [8])	Cells having a significantly lowered mitochondrial membrane potential (Ψm) (MV4-11 cells [2])	Induction of early apoptotic, apoptotic or necrotic cell death (MV4-11 cells [3])	Effect on cell cycle (MV4-11 cells [4])
1-(3-Methoxycinnamoyl)-2-hydroxy-sn-glycero-3-phosphocholine [Compound 9b]	154 ± 66.4 µM	30.5 ± 8.2 µM	11 fold	272 ± 33.1 µM	1.88	160 ± 61.7 µM	259 ± 16.7 µM	85.1 ± 11.9 µM	84.1 ± 7.4 µM											
1-Cinnamoyl-2-hydroxy-sn-glycero-3-phosphocholine [Compound 9a]	160 ± 45.7 µM	44.3 ± 5.1 µM	8 fold	290 ± 19.4 µM	2.13	238.2 ± 2.3 µM	287.1 ± 2 µM	112 ± 26.3 µM	104 ± 4.4 µM	moderate ability to overcome drug resistance										
N.N.[Cl][Pt][Cl] [Cisplatin, cisplatin, reference compound]	4.2 ± 1.1 µM	1.3 ± 0.47 µM		2.38 ± 0.64 µM		3.17 ± 0.2 µM	8.6 ± 0.7 µM	2.56 ± 0.4 µM	8.1 ± 0.03 µM											
O=C(O)/C=C/c1ccccc1 [Compound 1a, Cinnamic acid]											> 625 µM	359 ± 105 µM	> 625 µM	> 625 µM	> 625 µM	284 ± 26.6 µM	480 ± 46.2 µM			
COc1cccc(C=CC(=O)O)c1 [Compound 1b, 3-methoxycinnamic acid]											506 ± 67.7 µM	339 ± 111 µM	> 625 µM	> 625 µM	> 625 µM	233 ± 15.5 µM	420 ± 56.2 µM			
C[N+](C)(C)CCOP(=O)([O-])OC[C@@H](COC(=O)C=Cc1ccccc1)OC(=O)C=Cc1ccccc1 [Compound 3a, 1,2-Dicinnamoyl-sn-glycero-3-phosphocholine]					1.65						> 625 µM	215 ± 51.9 µM	> 625 µM	329 ± 12.5 µM	> 625 µM	200 ± 49.7 µM	321 ± 11.1 µM			
COc1cccc(C=CC(=O)OC[C@H](COP(=O)([O-])OCC[N+](C)(C)C)OC(=O)C=Cc2cccc(OC)c2)c1 [Compound 3b, 1,2-Di(3-methoxycinnamoyl)-sn-glycero-3-phosphocholine]					0.15						297 ± 56.4 µM	165 ± 25.4 µM	83.6 ± 45.1 µM	32.1 ± 16.9 µM	286 ± 5.3 µM	210 ± 22.2 µM	307 ± 12.5 µM			
CCCCCCCCCCCCCCCC(=O)OC[C@H](COP(=O)([O-])OCC[N+](C)(C)C)OC(=O)C=Cc1ccccc1 [Compound 5a, 1-Palmitoyl-2-cinnamoyl-sn-glycero-3-phosphocholine]					1.08						114 ± 36.6 µM	43.2 ± 9.9 µM	228 ± 30.6 µM	56.3 ± 0.8 µM	56.3 ± 0.4 µM	52.3 ± 5 µM	64.6 ± 3.4 µM	about 45%	lack of induction	arrested cell cycle in the G2/M phase
CCCCCCCCCCCCCCCC(=O)OC[C@H](COP(=O)([O-])OCC[N+](C)(C)C)OC(=O)C=Cc1cccc(OC)c1 [Compound 5b, 1-Palmitoyl-2-3-methoxycinnamoyl-sn-glycero-3-phosphocholine]					0.99						257 ± 52.4 µM	83.2 ± 4 µM	295 ± 11.4 µM	69.9 ± 6.3 µM	193 ± 27.4 µM	70.4 ± 5.4 µM	224 ± 9.5 µM			
CCCCCCCCCCCCCCCC(=O)O[C@H](COC(=O)C=Cc1ccccc1)COP(=O)([O-])OCC[N+](C)(C)C [Compound 10a, 1-Cinnamoyl-2-palmitoyl-sn-glycero-3-phosphocholine]					1.05						208 ± 30.7 µM	88.7 ± 28.9 µM	283 ± 5.2 µM	66 ± 8.7 µM	61.9 ± 3.7 µM	63 ± 14.4 µM	127 ± 28.3 µM			
CCCCCCCCCCCCCCCC(=O)O[C@H](COC(=O)C=Cc1cccc(OC)c1)COP(=O)([O-])OCC[N+](C)(C)C [Compound 10b, 1-3-Methoxycinnamoyl-2-palmitoyl-sn-glycero-3-phosphocholine]					1.2						291 ± 5.6 µM	236 ± 46.3 µM	296 ± 13.2 µM	254 ± 11.6 µM	280 ± 8.8 µM	211.6 ± 1.3 µM	214 ± 89.6 µM			
COc1cccc2c1C(=O)c1c(O)c3c(c(O)c1C2=O)C[C@@](O)(C(=O)CO)C[C@@H]3O[C@H]1C[C@H](N)[C@H](O)[C@H](C)O1 [Doxorubicin, doxorubicin, reference compound]					55.81															
